PMC9421655, “Novel Antagonist of the Type 2 Lysophosphatidic Acid Receptor (LPA2), UCM-14216, Ameliorates Spinal Cord Injury in Mice” (Journal of Medicinal Chemistry, 2022)

Experiments:
LPA2 [1] = biological target: T1, LPA2 (Homo sapiens, UniProt Q9HBW0); experiment: Ca2+ mobilization assay, agonist activity at LPA2; type: cell-based; conditions: 10 μM compound
T1 construct: expressed in transfected cells
Description: The agonist activity at LPA2 receptors was determined at 10 μM concentration for all final compounds as previously described.[18]
Figure S1. Representative snapshots showing the lack of significant agonist activity of selected compounds. (A) 1; (B) 13; (C) 54; and (D) Ki16425. (E) Graphs show the agonist activity induced […]
stably expressing LPA2 receptor were plated on collagen-coated black-wall clear-bottom 96-well plates (Corning) at a density of 50000 cells/well and cultured overnight. The culture medium was then replaced with Fluo-4 NW dye loading solution containing 2.5 µM of probenecid and incubated […]
for 30 minutes at 37 °C followed by an additional 30 minutes at rt. Fluorescence changes were registered in a FluoStar Optima instrument (BMG Labtech) at 525 nm using an excitation wavelength of 494 nm. Each well was monitored for 240 s. 20 µL of the test compound from a 6x stock solution in assay buffer were added after 120 s of starting the measurement. Ca2+ transient increase was quantified by calculating the difference between maximum and baseline values for each […]
Graphs shown are representative of two to three independent experiments.

LPA2 [2] = biological target: T1, LPA2; experiment: Ca2+ mobilization assay, antagonist activity at LPA2; type: cell-based; parameters: Emax: dose or concentration left out as unconfirmed; conditions: for IC50: antagonism of 10 μM LPA, mean ± s.e.m.
Description: (§1) Cells stably expressing the corresponding LPA1–3 receptor were grown as described previously.[18] Changes in intracellular calcium levels were measured by using the fluorescent calcium sensitive dye Fluo-4 NW (Invitrogen). RH7777 cells or B103 cells were plated on poly-D-lysine or collagen coated, respectively, black-wall clear-bottom 96-well plates (Corning) at a density of 50 000 cells/well and cultured overnight. The culture medium was then replaced with 100 μL of Fluo-4 NW dye loading solution containing 2.5 μM of probenecid and incubated for 30 min at 37 °C followed by an additional 30 min at rt. […] Fluorescence changes were registered in a FluoStar Optima instrument (BMG Labtech) at 525 nm using an excitation wavelength of 494 nm. […] The data presented are from two to four independent experiments carried out in triplicate or quadruplicate. Dose–response curves were generated and IC50 values calculated by nonlinear regression analysis using Prism software version 5 (GraphPad Software Inc., San Diego, CA, USA).
Figure S2. Dose response curves for compounds 13, 44, 53, 54, and 55. B103 cells stably expressing LPA2 receptor were incubated with different concentrations of the compound under study and […]
Curves were generated with PRISM software version 5 (GraphPad Software Inc, San Diego, CA, USA) using nonlinear regression analysis. Each data point corresponds to the mean±SEM of two to four independent experiments carried out in triplicate or quadruplicate.

LPA3 [3] = biological target: T2, LPA3 (Homo sapiens, UniProt Q9UBY5); experiment: cell-based; conditions: for Emax (%) LPA3: maximum blockade of activation induced by 10 μM LPA (18:1) at 10 μM compound, N.E. = no effect at 10 μM
T2 sequence (Q9UBY5 1-353): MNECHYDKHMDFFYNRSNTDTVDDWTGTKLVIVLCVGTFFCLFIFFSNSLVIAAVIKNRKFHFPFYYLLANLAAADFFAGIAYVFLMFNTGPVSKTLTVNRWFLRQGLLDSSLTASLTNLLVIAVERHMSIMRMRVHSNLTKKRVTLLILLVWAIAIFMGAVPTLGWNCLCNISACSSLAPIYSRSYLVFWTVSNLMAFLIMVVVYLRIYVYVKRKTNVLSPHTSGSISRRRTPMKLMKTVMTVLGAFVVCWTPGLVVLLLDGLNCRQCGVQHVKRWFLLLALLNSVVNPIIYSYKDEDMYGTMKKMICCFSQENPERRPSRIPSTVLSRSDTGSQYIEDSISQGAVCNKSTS
Description: as §1

LPA1 [4] = biological target: T3, LPA1 (Homo sapiens, UniProt Q92633); experiment: cell-based; conditions: maximum blockade of activation induced by 10 μM LPA (18:1) at 10 μM compound; N.E. = no effect at 10 μM
Description: as §1

LPA1 [5] = biological target: T3, LPA1; parameters: expressed in transfected cells; conditions: cited from earlier work
LPA3 [6] = biological target: T2, LPA3; parameters: expressed in transfected cells; conditions: cited from earlier work

T1 sequence (Q9HBW0 whole entry, species assumed): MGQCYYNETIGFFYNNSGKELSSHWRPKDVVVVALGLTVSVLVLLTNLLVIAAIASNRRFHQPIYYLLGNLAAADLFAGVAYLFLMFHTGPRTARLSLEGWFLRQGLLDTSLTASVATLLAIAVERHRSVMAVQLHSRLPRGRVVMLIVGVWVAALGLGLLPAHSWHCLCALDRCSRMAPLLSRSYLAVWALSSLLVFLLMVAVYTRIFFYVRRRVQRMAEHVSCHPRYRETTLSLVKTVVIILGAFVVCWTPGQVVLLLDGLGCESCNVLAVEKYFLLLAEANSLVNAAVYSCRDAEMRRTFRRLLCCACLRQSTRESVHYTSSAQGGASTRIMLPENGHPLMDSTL
T3 sequence (Q92633 whole entry, species assumed): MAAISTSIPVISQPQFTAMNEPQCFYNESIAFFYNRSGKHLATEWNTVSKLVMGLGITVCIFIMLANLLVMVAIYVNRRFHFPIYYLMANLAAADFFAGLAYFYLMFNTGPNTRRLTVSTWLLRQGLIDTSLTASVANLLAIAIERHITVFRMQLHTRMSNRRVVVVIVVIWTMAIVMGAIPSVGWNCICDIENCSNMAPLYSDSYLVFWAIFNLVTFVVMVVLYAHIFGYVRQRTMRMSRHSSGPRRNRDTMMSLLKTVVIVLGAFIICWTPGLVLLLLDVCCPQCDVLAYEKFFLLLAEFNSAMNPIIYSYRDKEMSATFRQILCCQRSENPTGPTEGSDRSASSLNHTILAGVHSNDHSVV

| Compound | Emax at 10 µM (LPA2 [2]) | Emax (%) LPA3 (LPA3 [3]) | Emax (%) LPA1 (LPA1 [4]) | melting point | further results |
| --- | --- | --- | --- | --- | --- |
| Cc1[nH]nc(-c2ccc(OCC(=O)O)cc2O)c1Oc1ccccc1Cl [Compound 1] | 48 ± 9% | N.E. | N.E.^c | – | agonist activity at LPA2 receptor (LPA2 [1]): lack and absence of significant agonist activity |
| O=C(O)COc1ccc(-c2cc[nH]n2)c(O)c1 [Compound 2, [3-Hydroxy-4-(1H-pyrazol-3-yl)phenoxy]acetic Acid] | 7 ± 3% | – | – | 92 to 94 °C | – |
| Cc1[nH]nc(-c2ccc(OCC(=O)O)cc2O)c1Oc1ccccc1 [Compound 3, [3-Hydroxy-4-(5-methyl-4-phenoxy-1H-pyrazol-3-yl)phenoxy]acetic Acid] | 20 ± 7% | N.E. | N.E. | > 180 °C (dec.) | – |
| Cc1[nH]nc(-c2ccc(OCC(=O)O)cc2O)c1Oc1cccc(Cl)c1 [Compound 10, {4-[4-(3-Chlorophenoxy)-5-methyl-1H-pyrazol-3-yl]-3-hydroxyphenoxy}acetic Acid] | 45 ± 8% | N.E. | N.E. | > 240 °C (dec.) | – |
| Cc1[nH]nc(-c2ccc(OCC(=O)O)cc2O)c1Oc1ccc(Cl)cc1 [Compound 11, {4-[4-(4-Chlorophenoxy)-5-methyl-1H-pyrazol-3-yl]-3-hydroxyphenoxy}acetic Acid] | 60 ± 9% | N.E. | N.E. | 121 to 123 °C | – |
| Cc1[nH]nc(-c2ccc(OCC(=O)O)cc2O)c1Oc1ccc(Cl)c(Cl)c1 [Compound 12, {4-[4-(3,4-Dichlorophenoxy)-5-methyl-1H-pyrazol-3-yl]-3-hydroxyphenoxy}acetic Acid] | 58 ± 3% | N.E. | N.E. | > 240 °C (dec.) | – |
| Cc1[nH]nc(-c2ccc(OCC(=O)O)cc2)c1Oc1ccc(Cl)cc1Cl [Compound 30, 4-(2,4-Dichlorophenoxy)-3-(4-carboxymethoxyphenyl)-5-methyl-1H-pyrazole] | 11% | – | – | 158 to 160 °C | – |
| Cc1[nH]nc(-c2ccc(OCCC(=O)O)cc2O)c1Oc1ccc(Cl)cc1Cl [Compound 36, 3-{4-[4-(2,4-Dichlorophenoxy)-5-methyl-1H-pyrazol-3-yl]-3-hydroxyphenoxy}propanoic Acid] | 67 ± 7% | N.E. | N.E. | – | – |
| Cc1[nH]nc(-c2ccc(OCCCC(=O)O)cc2O)c1Oc1ccc(Cl)cc1Cl [Compound 37, 4-{4-[4-(2,4-Dichlorophenoxy)-5-methyl-1H-pyrazol-3-yl]-3-hydroxyphenoxy}butanoic Acid] | 43 ± 12% | N.E. | N.E. | – | – |
| Cc1[nH]nc(-c2ccc(OCCCCC(=O)O)cc2O)c1Oc1ccc(Cl)cc1Cl [Compound 38, 5-{4-[4-(2,4-Dichlorophenoxy)-5-methyl-1H-pyrazol-3-yl]-3-hydroxyphenoxy}pentanoic Acid] | 21 ± 8% | N.E. | N.E. | – | – |
| Cc1[nH]nc(-c2ccc(O)cc2O)c1Oc1ccc(Cl)cc1Cl [Compound 42, 4-[4-(2,4-Dichlorophenoxy)-5-methyl-1H-pyrazol-3-yl]benzene-1,3-diol] | 16 ± 7% | N.E. | N.E. | 206 to 208 °C | – |
| COc1ccc(-c2n[nH]c(C)c2Oc2ccc(Cl)cc2Cl)c(O)c1 [Compound 43, 2-[4-(2,4-Dichlorophenoxy)-5-methyl-1H-pyrazol-3-yl]-5-methoxyphenol] | 9 ± 5% | N.E. | N.E. | 220 to 222 °C | – |
| COC(=O)COc1ccc(-c2n[nH]c(C)c2Oc2ccc(Cl)cc2Cl)c(O)c1 [Compound 44, Methyl {4-[4-(2,4-dichlorophenoxy)-5-methyl-1H-pyrazol-3-yl]-3-hydroxyphenoxy} Acetate] | 74 ± 7% | N.E. | N.E. | > 210 °C (dec.) | IC50 (LPA2 [2]): 11.6 µM |
| Cc1[nH]nc(-c2ccc(OCC(N)=O)cc2O)c1Oc1ccc(Cl)cc1Cl [Compound 45, 2-{4-[4-(2,4-Dichlorophenoxy)-5-methyl-1H-pyrazol-3-yl]-3-hydroxyphenoxy}acetamide] | 44 ± 7% | N.E. | N.E. | – | – |
| Cc1c(Oc2ccc(Cl)cc2Cl)c(-c2ccc(OCC(=O)O)cc2O)nn1C [Compound 47, {4-[4-(2,4-Dichlorophenoxy)-1,5-dimethyl-1H-pyrazol-3-yl]-3-hydroxyphenoxy}acetic Acid] | 73 ± 10% | – | N.E. | – | Emax (LPA3 [3]; read-out: Emax (%) LPA3): 47 ± 7% |
| O=C(O)COc1ccc(-c2n[nH]cc2Oc2ccc(Cl)cc2Cl)c(O)c1 [Compound 48, {4-[4-(2,4-Dichlorophenoxy)-1H-pyrazol-3-yl]-3-hydroxyphenoxy}acetic Acid] | 35 ± 8% | N.E. | N.E. | – | – |
| Cc1[nH]nc(-c2ccc(OCC(=O)O)cc2O)c1Oc1ccc(F)cc1F [Compound 53, {4-[4-(2,4-Difluorophenoxy)-5-methyl-1H-pyrazol-3-yl]-3-hydroxyphenoxy}acetic Acid] | – | N.E. | N.E. | > 210 °C (dec.) | Emax (LPA2 [2]): 65 ± 11%; IC50 (LPA2 [2]): 5.1 µM |
| Cc1[nH]nc(-c2ccc(OCc3nnn[nH]3)cc2O)c1Oc1ccc(F)cc1F [Compound 55] | – | N.E. | N.E. | > 210 °C (dec.) | Emax (LPA2 [2]): 77 ± 5% |
| Cc1csc2c(N[C@@H](C)CN3CCN(S(=O)(=O)c4ccc(Cl)c(Cl)c4)CC3)ncnc12 [Compound C35] | – | – | – | – | IC50 (LPA1 [5]): > 50 µM; IC50 (LPA3 [6]): > 50 µM |
| O=C(O)/C=C/C(=O)Nc1ccc(Oc2cccc(Oc3ccc(NC(=O)/C=C/C(=O)O)cc3)c2)cc1 [Compound H2L5186303] | – | – | – | – | IC50 (LPA1 [5]): 1.23 µM; IC50 (LPA3 [6]): 27.3 µM |
| {4-[4-(2,4-Dichlorophenoxy)-3-methyl-1,2-oxazol-3-yl]-3-hydroxyphenoxy}acetic Acid [Compound 49] | – | 71 ± 4% | N.E. | – | Emax (%) LPA2 (LPA2 [2]; maximum blockade of activation induced by 10 μM LPA (18:1) at 10 μM compound): 58 ± 3% |
